For one test, the system named is plant growth. The test can be described thus: Applicant's observation of plant growth induction by 1-octen-3-ol. It is filed as in vivo. The conditions noted are these: very low concentrations.
In test [1] the test system is root knot nematode, Meloidgyne javanica. Briefly: Split-root greenhouse trial on tomato with root knot nematode (Nemlab). It is filed as in vivo. The conditions noted are these: for overall effectiveness in nematode control: split-root greenhouse trial; for Number of Eggs/Root System, Pot 1—nem. alone (of split root system) / Numbers of female nematodes/root, Pot 1—nem. alone (of split root system) / Galling Index, Pot 1—nem. alone (of split root system) / Number of Eggs/Root System, Pot 2—agent + nematode (of split root system) / Numbers of female nematodes/root, Pot 2—agent + nematode (of split root system) / Galling Index, Pot 2—agent + nematode (of split root system): tomato split root; for Number of Eggs/Root System, Pot 1—nem. alone (of split root system) / Numbers of female nematodes/root, Pot 1—nem. alone (of split root system): root half with M. javanica only; for Galling Index, Pot 1—nem. alone (of split root system): root half with M. javanica only (systemic), scale 0 no galls to 5 100% of roots with galls; for Number of Eggs/Root System, Pot 2—agent + nematode (of split root system) / Numbers of female nematodes/root, Pot 2—agent + nematode (of split root system) / Galling Index, Pot 2—agent + nematode (of split root system): root half with M. javanica plus agent; for Galling Index, Pot 2—agent + nematode (of split root system): scale 0 no galls to 5 100%. The procedure: Comprehensive evaluation of the strains in greenhouse trials. […] It is difficult to obtain statistically valid results directly on nematode control from natural infestations since the levels of nematodes differ widely on a microsite level. Therefore, controlled greenhouse tests were conducted with Nemlab, a company in South Africa who specializes in nematode control testing. This trial was designed to consider mechanisms as well as direct contact control. As noted earlier, induction of systemic resistance was considered highly desirable, and would be expected given the generalized mechanisms of action described in Example 3, FIG. 8. To assess this character, tomato plants were grown for 6 weeks and then the roots were split into two, and each half root was placed into a separate pot with a single shoot. Except for water controls, 500-1000 eggs of the root knot nematode, Meloidgyne javanica were placed into each root system, but only one side, the various treatments were placed the biocontrol agents at 10^8 cfu/g soil. So, one root system of each plant contained nematodes only while the other contained nematodes plus the treatments. The treatments are shown below; there were six replicates per treatment. […] The experiment was designed to evaluate the ability of each strain to directly control (pot 2) and to control at-a-distance, the nematodes. […] There were a number of evaluations made of the plants at the end of the experiment, and the most important are shown below in Table 4 ([…] Index). Root galling is an index of the formation of 'knots' on roots that give root knot nematode its name and is an index of the root damage. The galls are the areas where the nematode is infesting the root and laying its eggs. The scale=0, no galls, 1, visible galling, 2, 25% of roots with galls, 3, 50% of roots with galls, 4, 75%, and 5, 100%.

Test [2] deals with cabbage aphid Brevicoryne brassicae. Briefly: Control of aphids on cabbage, single spray. The format is in vivo. The conditions noted are these: white flies on tomato and cabbage aphids on cabbage.
The test system of a further test is White flies. The test can be described thus: Control of white flies on greenhouse tomatoes with OPB+microbial strains. The conditions noted are these: single spray. It is filed as in vivo, Bremia spp.
For another test, the system named is maize. Briefly: ABM trials and field testing of commercial products and strains on corn. It is filed as in vivo.
In test [3] the test system is plant parasitic nematodes. Briefly: Field trials with sunflowers in South Africa, root galling. It is filed as in vivo. The note with it: sunflower, naturally infested field, FIG. 12. The procedure:
Field trials with sunflowers in the field in South Africa. Trials were conducted in the Republic of South Africa. Sunflower seeds were treated with various microorganisms and planted into soil infested with plant parasitic nematodes. After the plants were mature, roots were harvested and rated for root galling caused by the nematodes. The variability was quite large in this naturally infested field.

The next test has as its system nematodes. Briefly: Field trial in Iowa in a field heavily infested with nematodes: yields. The conditions noted are these: Iowa nematode-infested field.
The next test relates to corn (Zea mays). Briefly: Corn field trial ABM14 (1st field trial), seed treatments. The format is in vivo. The note with it: both ABM14 and ABM15 studies.
Another test relates to corn. The test can be described thus: Corn trials in the greenhouse, seed treatment. The format is in vivo. The note with it: FIG. 2. From the text:
Corn trials in the greenhouse. […] The growth differences are clearly evident.

The next test deals with soybean. The test can be described thus: Greenhouse soybean in sand tubes, seed treatment. The conditions noted are these: stem length, Spad, root weight, root volume; FIG. 4; significant at alpha=0.05 or 0.01. It is filed as in vivo. The procedure:
Trichoderma strain K5 increases growth in soybean in the greenhouse when applied as a seed treatment. Soybean seeds were treated with either T. virens NRRL B-5025 strain or left untreated with no other microbial or chemical treatments being applied. These were planted into sand tubes and growth data was collected as the seeds emerged and the seedlings grew. […] All of the differences shown in FIG. 4 are significant at alpha=0.05 or 0.01.

The next test has as its system wheat. The test can be described thus: Greenhouse wheat seedlings, foliar spray. It is filed as in vivo. The note with it: foliar spray vs water only; FIG. 3. The source says: Trichoderma strain K5 increases growth in greenhouse grown wheat when applied as a foliar treatment. […] Control plants were sprayed with water only.

“Also recorded” adds a separate entry of the source.

With `C=CC(O)CCCCC` (stereo not shown) [1-octen-3-ol], in the test on plant growth, the “induction of plant growth” value was “potent inducer of enhanced plant growth”.

In the case of “Bacillus amyloliquifaciens [Bacillus AS2]”, in test [1], the “overall effectiveness in nematode control” value is given as “nearly as good an effect”; the “Number of Eggs/Root System, Pot 1—nem. alone (of split root system)” value amounted to 2481; the “Numbers of female nematodes/root, Pot 1—nem. alone (of split root system)” value amounted to 14.67; the “Galling Index, Pot 1—nem. alone (of split root system)” value (“Galling Index, Pot 1—nem. alone” below) was 2.3. In test [1], the “Number of Eggs/Root System, Pot 2—agent + nematode (of split root system)” value is 970; the “Numbers of female nematodes/root, Pot 2—agent + nematode (of split root system)” value was found to be 8.16; the “Galling Index, Pot 2—agent + nematode (of split root system)” value (“Galling Index, Pot 2—agent + nematode” for short) is 2.0. The “conclusion from the combined two experiments” value (“conclusion” below) in [2] is given as “highly effective”. Moreover, the “duration of white fly control” value with White flies is “effects continued at least three weeks”.

Consider “T. virens strain ATCC 20906 [Trichoderma K1]”, for which, in test [1], the “Number of Eggs/Root System, Pot 1—nem. alone (of split root system)” value came out at 45631; the “Numbers of female nematodes/root, Pot 1—nem. alone (of split root system)” value is on record as 25.17; the “Galling Index, Pot 1—nem. alone” value came to 3.33; the “Number of Eggs/Root System, Pot 2—agent + nematode (of split root system)” value is recorded as 48765. In addition, in test [1], the “Numbers of female nematodes/root, Pot 2—agent + nematode (of split root system)” value is 35.7 and the “Galling Index, Pot 2—agent + nematode” value was 3.17. For the same compound, the “conclusion” value in test [2] was “highly effective”. The “duration of white fly control” value with White flies is reported as “effects continued at least three weeks”. In addition, in the test on maize, the “impact on corn in field testing” value is on record as “negative impact on corn”.

“Trichoderma gamsii (NRRL B-50520) [Trichoderma K5]”: in test [1], the “overall effectiveness in nematode control” value is “most effective treatment”; the “Number of Eggs/Root System, Pot 1—nem. alone (of split root system)” value was determined as 1298; the “Numbers of female nematodes/root, Pot 1—nem. alone (of split root system)” value was 4.0; the “Galling Index, Pot 1—nem. alone” value was 1.3. Further, in [1], the “Number of Eggs/Root System, Pot 2—agent + nematode (of split root system)” value worked out at 493; the “Numbers of female nematodes/root, Pot 2—agent + nematode (of split root system)” value turned out to be 8.5; the “Galling Index, Pot 2—agent + nematode” value is given as 2.17. Besides, the “root galling index” value in [3] is listed as “lowest numerical galling index of the biological treatments”. In the test on nematodes, the “yield performance” value is recorded as “excellent performance”. In addition, the “grain yields” value in the test with corn (Zea mays) is given as “largest grain yields”. Besides, the “conclusion” value in [2] is “highly effective”. In addition, the “duration of white fly control” value in the test with White flies is recorded as “effects continued at least three weeks”. For the same compound, the “growth of corn plants” value in the test on corn was “improved growth and development”. In addition, the “soybean seedling growth” value in the test with soybean is on record as “significantly increase soybean seedling growth”. Besides, in the test on wheat, the “growth of wheat seedlings” value was “clearly larger and more vigorous; also recorded: significant growth increase”.

The values are drawn from patent US12030824B2 (priority 2016, dated 2024).
